Data as given in publication PMC8079033, “Design, synthesis, anticancer evaluation, and molecular modelling studies of novel tolmetin derivatives as potential VEGFR-2 inhibitors and apoptosis inducers” (Journal of Enzyme Inhibition and Medicinal Chemistry, 2021).

Assays:
Experiment in all cases: NCI 60-cell line one-dose antiproliferative screen (SRB)
Type in all cases: cell-based
NCI-H460 = conditions: Homo sapiens, read-out: growth inhibition % (GI%)
How it was run: (§1)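 For the suspension line, settled cells were fixed with 80% TCA to a final 16%; attached lines received 50% TCA to a final 10%, 4 °C. All were treated 48 h at 10 µM, then SRB-stained.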

CAKI-1 = conditions: Homo sapiens, read-out: growth inhibition % (GI%)
How it was run: as §1

OVCAR-5 = conditions: Homo sapiens, read-out: growth inhibition % (GI%)
How it was run: as §1

CCRF-CEM = conditions: Homo sapiens, read-out: growth inhibition % (GI%)
How it was run: as §1

U251 = conditions: Homo sapiens, U-251, read-out: growth inhibition % (GI%)
How it was run: as §1

OVCAR-8 = conditions: Homo sapiens, read-out: growth inhibition % (GI%)
How it was run: as §1

RXF 393 = conditions: Homo sapiens, read-out: growth inhibition % (GI%)
How it was run: as §1

UACC-62 = conditions: Homo sapiens, read-out: growth inhibition % (GI%)
How it was run: as §1

SW-620 = conditions: Homo sapiens, read-out: growth inhibition % (GI%)
How it was run: as §1

BT-5 = conditions: Homo sapiens, read-out: growth inhibition % (GI%)
How it was run: as §1

HCT-15 = conditions: Homo sapiens, read-out: growth inhibition % (GI%)
How it was run: as §1

NCI/ADR-RES = conditions: Homo sapiens, read-out: growth inhibition % (GI%)
How it was run: as §1

M14 = conditions: Homo sapiens, read-out: growth inhibition % (GI%)
How it was run: as §1

HOP-62 = conditions: Homo sapiens, read-out: growth inhibition % (GI%)
How it was run: as §1

NCI-H522 = conditions: Homo sapiens, read-out: growth inhibition % (GI%)
How it was run: as §1

SF-268 = conditions: Homo sapiens, read-out: growth inhibition % (GI%)
How it was run: as §1

786-0 = conditions: Homo sapiens, read-out: growth inhibition % (GI%)
How it was run: as §1

HCT-116 = conditions: Homo sapiens, read-out: growth inhibition % (GI%)
How it was run: as §1

LOX IMVI = conditions: Homo sapiens, read-out: growth inhibition % (GI%)
How it was run: as §1

SNB-19 = conditions: Homo sapiens, read-out: growth inhibition % (GI%)
How it was run: as §1

T-47D = conditions: Homo sapiens, T47D, read-out: growth inhibition % (GI%)
How it was run: as §1

MCF7 = conditions: Homo sapiens, read-out: growth inhibition % (GI%)
How it was run: as §1

OVCAR-4 = conditions: Homo sapiens, read-out: growth inhibition % (GI%)
How it was run: as §1

MDA-MB-231/ATCC = conditions: Homo sapiens, read-out: growth inhibition % (GI%)
How it was run: as §1

NCI-H23 = conditions: Homo sapiens, read-out: growth inhibition % (GI%)
How it was run: as §1

ACHN = conditions: Homo sapiens, read-out: growth inhibition % (GI%)
How it was run: as §1

RPMI-8226 = conditions: Homo sapiens, read-out: growth inhibition % (GI%)
How it was run: as §1

SNB-75 = conditions: Homo sapiens, read-out: growth inhibition % (GI%)
How it was run: as §1

PC-3 = conditions: Homo sapiens, read-out: growth inhibition % (GI%)
How it was run: as §1

IGROV1 = conditions: Homo sapiens, IGROV-1, read-out: growth inhibition % (GI%)
How it was run: as §1

SK-MEL-5 = conditions: Homo sapiens, read-out: growth inhibition % (GI%)
How it was run: as §1

UO-31 = conditions: Homo sapiens, read-out: growth inhibition % (GI%)
How it was run: as §1

A498 = conditions: Homo sapiens, read-out: growth inhibition % (GI%)
How it was run: as §1

NCI-H322M = conditions: Homo sapiens, read-out: growth inhibition % (GI%)
How it was run: as §1

Cc1ccc(C(=O)c2ccc(CC(=O)NN=Cc3ccc(O)cc3O)n2C)cc1 [Compound 5c, N′-(2,4-Dihydroxybenzylidene)-2–(1-methyl-5–(4-methylbenzoyl)-1H-pyrrol-2-yl) acetohydrazide]
inhibition at 10 µM (NCI-H460): 78.9%
inhibition at 10 µM (CAKI-1): 53.4%
inhibition at 10 µM (OVCAR-5): 36.6%
inhibition at 10 µM (CCRF-CEM): 83.2%
inhibition at 10 µM (U251): 62.4%
inhibition at 10 µM (OVCAR-8): 51.6%
inhibition at 10 µM (RXF 393): 50.3%
inhibition at 10 µM (UACC-62): 70.2%
inhibition at 10 µM (SW-620): 57.8%
inhibition at 10 µM (BT-5): 49.2%
inhibition at 10 µM (HCT-15): 83.2%
inhibition at 10 µM (NCI/ADR-RES): 65.4%
inhibition at 10 µM (M14): 71.2%
inhibition at 10 µM (HOP-62): 59.4%
inhibition at 10 µM (NCI-H522): 44.5%
inhibition at 10 µM (SF-268): 62.7%
inhibition at 10 µM (786-0): 56.6%
inhibition at 10 µM (HCT-116): 65.1%
inhibition at 10 µM (LOX IMVI): 81.2%
inhibition at 10 µM (SNB-19): 50.6%
inhibition at 10 µM (T-47D): 49.8%
inhibition at 10 µM (MCF7): 60.8%
inhibition at 10 µM (OVCAR-4): 79.3%
inhibition at 10 µM (MDA-MB-231/ATCC): 48.6%
inhibition at 10 µM (NCI-H23): 57.6%
inhibition at 10 µM (ACHN): 83.5%
inhibition at 10 µM (RPMI-8226): 51.6%
inhibition at 10 µM (SNB-75): 68.9%
inhibition at 10 µM (PC-3): 38.9%
inhibition at 10 µM (IGROV1): 58.3%
inhibition at 10 µM (SK-MEL-5): 60.7%
inhibition at 10 µM (UO-31): 80.2%
inhibition at 10 µM (A498): 12.6%
inhibition at 10 µM (NCI-H322M): 62%

Cc1ccc(C(=O)c2ccc(CC(=O)NN=Cc3c[nH]c4ccccc34)n2C)cc1 [Compound 5f, N′-((1H-Indol-3-yl)methylene)-2–(1-methyl-5–(4-methylbenzoyl)-1H-pyrrol-2-yl) acetohydrazide]
inhibition at 10 µM (NCI-H460): < 10%
inhibition at 10 µM (CAKI-1): 17%
inhibition at 10 µM (OVCAR-5): < 10%
inhibition at 10 µM (CCRF-CEM): 24.6%
inhibition at 10 µM (U251): 10.4%
inhibition at 10 µM (OVCAR-8): < 10%
inhibition at 10 µM (RXF 393): < 10%
inhibition at 10 µM (UACC-62): 12.2%
inhibition at 10 µM (SW-620): < 10%
inhibition at 10 µM (BT-5): < 10%
inhibition at 10 µM (HCT-15): 16.8%
inhibition at 10 µM (NCI/ADR-RES): < 10%
inhibition at 10 µM (M14): < 10%
inhibition at 10 µM (HOP-62): < 10%
inhibition at 10 µM (NCI-H522): 18.7%
inhibition at 10 µM (SF-268): 10.5%
inhibition at 10 µM (786-0): < 10%
inhibition at 10 µM (HCT-116): < 10%
inhibition at 10 µM (LOX IMVI): 16.5%
inhibition at 10 µM (SNB-19): 12.5%
inhibition at 10 µM (T-47D): 22.1%
inhibition at 10 µM (MCF7): 27%
inhibition at 10 µM (OVCAR-4): 11.1%
inhibition at 10 µM (MDA-MB-231/ATCC): 12.4%
inhibition at 10 µM (NCI-H23): < 10%
inhibition at 10 µM (ACHN): 34.2%
inhibition at 10 µM (RPMI-8226): 15.9%
inhibition at 10 µM (SNB-75): 25.5%
inhibition at 10 µM (PC-3): < 10%
inhibition at 10 µM (IGROV1): 15.2%
inhibition at 10 µM (SK-MEL-5): < 10%
inhibition at 10 µM (UO-31): 32.8%
inhibition at 10 µM (A498): 15.6%
inhibition at 10 µM (NCI-H322M): < 10%

Cc1ccc(C(=O)c2ccc(CC(=O)NN3C(=O)CCC3=O)n2C)cc1 [Compound 7a, N-(2,5-Dioxopyrrolidin-1-yl)-2–(1-methyl-5–(4-methylbenzoyl)-1H-pyrrol-2-yl) acetamide]
inhibition at 10 µM (NCI-H460): < 10%
inhibition at 10 µM (CAKI-1): 28.3%
inhibition at 10 µM (OVCAR-5): 10.6%
inhibition at 10 µM (CCRF-CEM): < 10%
inhibition at 10 µM (U251): < 10%
inhibition at 10 µM (OVCAR-8): 11%
inhibition at 10 µM (RXF 393): < 10%
inhibition at 10 µM (UACC-62): 12.4%
inhibition at 10 µM (SW-620): < 10%
inhibition at 10 µM (BT-5): < 10%
inhibition at 10 µM (HCT-15): < 10%
inhibition at 10 µM (NCI/ADR-RES): 12.8%
inhibition at 10 µM (M14): < 10%
inhibition at 10 µM (HOP-62): 15.5%
inhibition at 10 µM (NCI-H522): 30.8%
inhibition at 10 µM (SF-268): 11.9%
inhibition at 10 µM (786-0): < 10%
inhibition at 10 µM (HCT-116): 11.3%
inhibition at 10 µM (LOX IMVI): 12.8%
inhibition at 10 µM (SNB-19): 20%
inhibition at 10 µM (T-47D): 42.8%
inhibition at 10 µM (MCF7): 14.4%
inhibition at 10 µM (OVCAR-4): 31.9%
inhibition at 10 µM (MDA-MB-231/ATCC): 13.7%
inhibition at 10 µM (NCI-H23): 24.8%
inhibition at 10 µM (ACHN): 11.2%
inhibition at 10 µM (RPMI-8226): 20.2%
inhibition at 10 µM (SNB-75): 40.9%
inhibition at 10 µM (PC-3): 10%
inhibition at 10 µM (IGROV1): 22.3%
inhibition at 10 µM (SK-MEL-5): < 10%
inhibition at 10 µM (UO-31): 41.2%
inhibition at 10 µM (A498): 14.5%
inhibition at 10 µM (NCI-H322M): < 10%
